These results are taken from patent US6465466B1, “Uses of indolo-2 [2,3b] -quinoxalines” (priority 1995, dated 2002).

For series [1], the system named is regeneration of liver tissue. Kind of series: In vivo toxicity: liver regeneration after partial hepatectomy (liver-somatic index). Also noted: species or system rats. As for the experimental part:
The in vivo toxicity of B-220 was tested in rats. A portion of the liver was removed (partial hepatectomy, PH) by surgery and the regeneration of liver tissue was studied. The regeneration was measured as liver-somatic index (LSI), in other words, the relative liver weight in percent of the body weight.
AAF (2-acetylaminofluorene) is a very toxic substance which acts as a mito-inhibitor, i.e. inhibits cell division of normal liver cells.
The results are shown in FIG. 3 wherein LSI is plotted against days after partial hepatectomy.

Another series relates to bacterial strain TA 100. Kind of series: Ames test, mutagenicity of MMS and EMS with and without B-220. The class given is cell-based, Salmonella. Conditions: for mutagenicity of the mutagen alone (revertants/plate): TA 100, without B-220. On the procedure:
The following example illustrates the fact that compound B-220 reduces the mutagenicity of potent mutagens in the bacterial mutagenicity test, the “Ames test”. In the test the bacterial strain TA 100 was used. […] These mutagens were MMS=Methylmethanesulphonate and EMS=Ethylmethanesulphonate. The results of the experiments carried out are shown graphically in FIGS. 2a and 2b. In the Figures revertants/plate, is plotted against microgram MMS and EMS, respectively, plus 70 μg B-220.

The next series relates to test strain TA100. Kind of series: Ames test, mutagenic potential of the substances, test strain TA100. The class given is cell-based, Salmonella. Conditions: for anti-mutagenic potential (reduction of spontaneous background): TA100; for mutagenic potential (revertants/plate): TA100, with and without S9. From the text: This example illustrates the mutagenic potential in the bacterial mutagenicity test, “Ames test”, with test strain TA100, of B-220 (FIG. 1a) and 9-OH-B-220 (FIG. 1b). S9 indicates the presence […] or absence (−S9) of a cellular enzymatic fraction capable to metabolize the tested substances. The metabolic activation is a liver fraction containing enzymes needed in metabolism. In the Figures revertants/plate, an intensity measurement of mutagenic activity, is plotted against μg B-220 and μg 9-OH-B-220.

Series [2] is described as follows: Whole body gamma-irradiation of mice. The class given is in vivo. As for the experimental part:
Gamma-irradiation is a very potent agent which can induce oxidative stress, reduce body weight gain and shorten life span. In FIG. […] The human LD50 of gamma-irradiation os approximately 3 Gy.
“B220” was administered intra peritoneal in corn oil 24 and 3 h before the irradiation.
The body weight gain of each group is shown as percent of the body weight at the time of irradiation. A lower body weight gain is an indicator of a shorter life span in the long term perspective. Gamma-irradiation is a way to induce a premature aging which is also seen as gray fur in these mice.

The test system of series [3] is 8-hydroxy-2'-deoxyguanosine (8-OH-dG). The series is described as follows: 8-OH-dG formation in DNA after oral 2,7-dinitrofluorene. Particulars: rats pre-treated with B220, 2,7-dNF orally. The class given is in vivo. An excerpt:
Oxidation of deoxyguanosine (dG), one of the bases in DNA, is an oxidative lesion of DNA related to oxidative stress. The reaction product between free radicals and dG is 8-hydroxy-2′-deoxyguanosine (8-OH-dG). This biomarker is a reaction product found in DNA, i.e. the oxidative stress is not only found as oxidants in the circulation or in the cytoplasm, but reaches the nucleus and reacts with DNA. In FIG. 8 results are shown when the urban air pollutant (result of incomplete combustion of fuels of vehicles) and carcinogen 2,7-dinitrofluorene (2,7-dNF) was administered orally to rats. In the metabolism, reactive intermediates were formed that oxidized dG to 8-OH-dG.

In series [4] the test system is human cell cultures of phagocytes. Kind of series: Luminol chemiluminescence in human phagocyte cultures. The class given is cell-based. Conditions: dose dependent; intracellular, also seen extracellular; same effect as salt and free base. An excerpt: In this test the effects of “B220” have been exposed to human cell cultures of phagocytes. Luminol reacts with the markers for oxidative stress, hydrogen peroxide or the superoxide ion, and generates light. […] “B220” has the same effect both in the form of salt and the free base.

A further series deals with skin tumors. The series is described as follows: Skin tumor model, DMBA initiation and TPA promotion. The class given is in vivo, mice. On the procedure: The compounds used according to the present invention have been tested as regards the formation of tumors (skin tumors) for mice subjected to strong tumor initiating and strong tumor promotion conditions. […] Furthermore, if the administration of the compound used according to the present invention is terminated, the animals will develop the same number of tumors as in the positive control. This means that the original DNA injury remains and the tumor promoter which is administered continuously can give rise to a considerable development of tumors. Accordingly a compound used according to the present invention can stop the tumor process caused by potent tumor promoting agents in combination with potent tumor initiators.
This example illustrates a tumor model which is based on in vivo tumor initiation with one does of dimethylbenzanthracene (DMBA) where after, a potent tumor promoter […] (TPA) was administered twice a week. After a number of weeks the skin tumors can be detected and followed during the study, After approximately 100 days (A) the positive controls reached the maximum, where after the total number declines due to the behavior of the animals. […] After six months exposure of B-220+TPA in the B-220 group, B-220 was no longer administered (B).

`CN(C)CCn1c2ccc(O)cc2c2nc3ccccc3nc21` yielded a melting point of 269 to 270 °C.

Consider `CC(=O)Nc1ccc2c(c1)Cc1ccccc1-2` [AAF, 2-acetylaminofluorene, reference compound], for which, in series [1] (rats, days after partial hepatectomy), the “regeneration of liver tissue (liver-somatic index, LSI)” value was “very slow”.

Regarding `CCOS(C)(=O)=O` [EMS, Ethylmethanesulphonate, reference compound], the “mutagenicity of the mutagen alone (revertants/plate)” value with bacterial strain TA 100 is recorded as “strong mutagen”.

Take `Cc1cc2nc3c4cc(O)ccc4n(CCN(C)C)c3nc2cc1C` [Example 9-OH-B-220, 2,3-Dimethyl-6-(2-dimethylaminoethyl)-9-hydroxy-6H-indolo[2,3-b]-quinoxaline]: in the series on test strain TA100, the “anti-mutagenic potential (reduction of spontaneous background)” value is “anti-mutagenic” and the “mutagenic potential (revertants/plate)” value is “non-mutagenic”.

Take `Cc1cc2nc3c4ccccc4n(CCN(C)C)c3nc2cc1C` [Example B-220]: in the series with test strain TA100, the “anti-mutagenic potential (reduction of spontaneous background)” value was “anti-mutagenic”. In addition, the “mutagenic potential (revertants/plate)” value in the series with test strain TA100 was “non-mutagenic”. In addition, the “protective effect (life span)” value is “protective effect similar to pre-treatment” in series [2] (8 Gy, administration after irradiation); “no protective effect” in series [2] (14 Gy, intra peritoneal in corn oil 24 and 3 h before irradiation). The “protective effect (increased life span)” value in series [2] (8 Gy, intra peritoneal in corn oil 24 and 3 h before irradiation) is listed as “protective effect”. The body weight gain entry in series [2] (lower doses, 1 and 6 Gy) is “increased body weight gain”. Further, in series [3], the “oxidative stress (8-OH-dG in DNA)” value is recorded as “down-regulated to levels lower than the controls”. The “mutagenicity of EMS when B-220 is added” value in the series with bacterial strain TA 100 (TA 100, EMS plus 70 μg B-220) was “reduced the mutagenicity but not as much as for MMS”. The “mutagenicity of MMS when B-220 is added” value with bacterial strain TA 100 (TA 100, MMS plus 70 μg B-220) is given as “the mutagenicity disappears”. Moreover, the “formation of hydrogen peroxide and superoxide ion generated by oxidase (chemiluminescence)” value in series [4] is “down regulates and even eliminates”. In series [1] (rat, in vivo), the “regeneration of liver tissue (liver-somatic index, LSI)” value was “no difference from the controls”. In addition, the “toxic effects in vivo” value in series [1] (rat, in vivo) is “did not show any toxic effects”. The skin tumors entry in the series on skin tumors (after six months of B-220+TPA) is reported as “very slight increase in tumors”; in the series on skin tumors (approximately 100 days, B-220 one hour before TPA, DMBA-initiated), “no tumors at all”. Further, the “skin tumors after B-220 no longer administered” value with skin tumors (after six months, TPA continued, B-220 stopped) was “rapid increase of tumors”. Besides, the carcinogenicity result with skin tumors (skin tumor model) is on record as “not a carcinogen”.

Take `COS(C)(=O)=O` [MMS, Methylmethanesulphonate, reference compound]: the “mutagenicity of the mutagen alone (revertants/plate)” value with bacterial strain TA 100 was “strong mutagen”.
